According to patent US20210299082A1, “FISETIN COMPOSITION AND A METHOD OF MAKING THE SAME” (priority 2020, published 2021):
Like-named read-outs stand apart in the source and are kept apart here.

Tests used:
skin of 20 people = assay: topical skin treatment; type: in vivo, human; conditions: 200 mM fisetin in polyethylene glycol containing titanium nanoparticles; applied to the skin of 20 people for 2 days
Protocol: In yet another example of the invention, fisetin can be used as a topical skin treatment. Fisetin was dissolved in polyethylene glycol containing titanium nanoparticles with a resulting fisetin concentration of 200 mM. Fisetin was applied to the skin of 20 people for 2 days.

[1] = solubility of fisetin in water and in ethanol; type: physicochemical
Protocol: In one embodiment of the invention, a fisetin composition comprises fisetin and a second component that is selected from a group that comprises ethanol. The group may further comprise water. In one example, the solubility of fisetin in water is substantially 0.05 mg/mL or more, such as 0.1 mg/mL or more, 0.15 mg/mL or more, or 0.2 mg/mL. In another example, the solubility of fisetin in ethanol is substantially 2 mg/mL or more, such as 4 mg/mL or more, 6 mg/mL or more, 8 mg/mL or more, or 10 mg/mL or more.

joint pain in a person = assay: joint pain relief in a person after oral fisetin; type: in vivo, human; conditions: for reported joint pain: ingested 5 consecutive days
Protocol: In still another embodiment of the invention, the fisetin composition is used to relieve joint pain in a person. A person ingested fisetin (500 mg) in capsule powder form for 5 consecutive days, fisetin (500 mg) mixed in 35 mL of MCT oil for 5 consecutive days, or fisetin (500 mg) mixed in 40 mL of 40% ethanol and 60% water for 5 consecutive days, each test separated by a month. Reported joint pain decreased only after consuming fisetin in 40% ethanol and 60% water, but not the other regimens.

blood glucose level = blood glucose level in a person after oral fisetin; type: in vivo, human
Protocol: In still another example of the embodiment, fisetin can be used to decrease blood glucose level. Fisetin (500 mg) was ingested by a person after mixing with 75 mL of 53% ethanol and 47% water for 3 consecutive days.

[2] = 500 mg for 5 consecutive days, regimen not specified, stated after the 40% ethanol and 60% water result
[3] = 500 mg in 75 mL of 53% ethanol and 47% water, 3 consecutive days

solubility ([1]; in water, read-out: solubility of fisetin in water): ≥ 50 µg/mL
solubility ([1]; organic solvent or mixture, in ethanol, read-out: solubility of fisetin in ethanol): ≥ 2000 µg/mL
Structure (SMILES): O=c1c(O)c(-c2ccc(O)c(O)c2)oc2cc(O)ccc12 [fisetin]
skin appearance reported by subjects (skin of 20 people): improved skin appearance
energy (joint pain in a person; [2]): slight increase
metabolism (joint pain in a person; [2]): slight increase
weight decrease (joint pain in a person; 500 mg for 5 consecutive days, to a BMI 23.7): approximately 1 kg
reported joint pain (joint pain in a person; 500 mg in capsule powder form): not
reported joint pain (joint pain in a person; 500 mg mixed in 35 mL of MCT oil): not
reported joint pain (joint pain in a person; 500 mg mixed in 40 mL of 40% ethanol and 60% water): decreased
energy (blood glucose level; [3]): slight increase
metabolism (blood glucose level; [3]): slight increase
weight decrease (blood glucose level; 500 mg in 75 mL of 53% ethanol and 47% water, 3 consecutive days, to a BMI 22.1): approx. 1 kg
waking blood glucose level after the administration (blood glucose level; 500 mg mixed with 75 mL of 53% ethanol and 47% water, 3 consecutive days, decreased from 5.7 mmol/L): 4.8 mmol/L
muscle gain (blood glucose level; in a month afterwards without increased exercise): slight muscle gain
